What was measured:
Cholinesterase = Cholinesterase (Homo sapiens, UniProt P06276)
Description: In vitro inhibition of Butyrylcholinesterase from human erythrocytes

Acetylcholinesterase = Acetylcholinesterase (Homo sapiens, UniProt P22303)
Description: In vitro inhibition of Acetylcholinesterase from human erythrocytes

[1] = Safety index is the ratio of acute lethality LD50 to extracellular AchE ED50.; assay type: toxicity; conditions: read-out: Safety index
Rattus norvegicus [2] = species on record: Rattus norvegicus; assay: animal or person
Description: ED50 for salivation was defined as the dose required to produce a level 2 rating on a 0-4 point scale after treatment.

Rattus norvegicus [3] = species on record: Rattus norvegicus; assay: animal or person; conditions: 3 h

Chain of Cholinesterase (P06276 whole entry): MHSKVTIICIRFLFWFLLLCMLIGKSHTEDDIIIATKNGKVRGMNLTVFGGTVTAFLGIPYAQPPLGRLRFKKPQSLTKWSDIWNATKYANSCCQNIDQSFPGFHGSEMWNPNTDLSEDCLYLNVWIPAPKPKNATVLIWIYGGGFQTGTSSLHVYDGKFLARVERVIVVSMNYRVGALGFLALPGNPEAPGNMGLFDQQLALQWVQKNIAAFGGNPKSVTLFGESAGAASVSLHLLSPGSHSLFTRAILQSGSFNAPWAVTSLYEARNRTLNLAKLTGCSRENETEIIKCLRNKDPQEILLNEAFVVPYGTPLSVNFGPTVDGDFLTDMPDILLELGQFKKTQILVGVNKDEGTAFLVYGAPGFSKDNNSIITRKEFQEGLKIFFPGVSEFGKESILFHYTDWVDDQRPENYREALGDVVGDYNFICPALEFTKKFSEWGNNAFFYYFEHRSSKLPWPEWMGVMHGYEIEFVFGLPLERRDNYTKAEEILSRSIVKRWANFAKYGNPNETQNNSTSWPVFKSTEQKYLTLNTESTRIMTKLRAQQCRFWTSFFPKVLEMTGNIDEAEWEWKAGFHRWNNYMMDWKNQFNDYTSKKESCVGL
Chain of Acetylcholinesterase (P22303 whole entry): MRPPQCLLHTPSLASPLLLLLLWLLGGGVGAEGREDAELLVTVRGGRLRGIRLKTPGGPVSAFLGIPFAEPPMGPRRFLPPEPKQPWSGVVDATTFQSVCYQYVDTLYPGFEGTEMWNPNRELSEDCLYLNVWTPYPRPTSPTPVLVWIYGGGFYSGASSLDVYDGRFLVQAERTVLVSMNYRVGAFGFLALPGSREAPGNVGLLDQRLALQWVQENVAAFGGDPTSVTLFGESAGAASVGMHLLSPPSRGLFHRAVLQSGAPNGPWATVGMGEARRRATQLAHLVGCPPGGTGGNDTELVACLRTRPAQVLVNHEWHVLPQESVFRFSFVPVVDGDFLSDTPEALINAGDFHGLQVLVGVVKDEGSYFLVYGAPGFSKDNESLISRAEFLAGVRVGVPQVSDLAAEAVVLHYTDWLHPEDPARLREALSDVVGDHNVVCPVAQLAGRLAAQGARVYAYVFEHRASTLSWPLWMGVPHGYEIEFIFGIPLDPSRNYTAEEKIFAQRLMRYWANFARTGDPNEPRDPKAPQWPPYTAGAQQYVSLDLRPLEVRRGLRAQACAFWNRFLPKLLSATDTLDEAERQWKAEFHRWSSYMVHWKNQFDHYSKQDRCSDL
Description for in vivo: LD50 for actute lethality is defined as the dose that resulted in the death of 50% of the animals 1 hr after treatment.

SMILES | IC50 (Cholinesterase) | IC50 (Acetylcholinesterase) | selectivity ratio [1] | ED50 (Rattus norvegicus [2]) | LD50 at 1 h (in vivo) | ED50 (Rattus norvegicus [3])
O=C1Cc2cc3onc(CCC4CCN(Cc5ccccc5)CC4)c3cc2N1 | 3900 nM | 0.95 nM | – | – | – | –
O=C1CCc2cc3c(CCC4CCN(Cc5ccccc5)CC4)noc3cc2N1 | 4000 nM | 0.57 nM | – | – | – | –
CC(=O)Nc1ccc2c(CCC3CCN(Cc4ccccc4)CC3)noc2c1 | 9000 nM | – | – | – | – | –
CN1C(=O)Cc2cc3c(CCC4CCN(Cc5ccccc5)CC4)noc3cc21 | 4500 nM | 0.48 nM | – | – | – | –
O=C1Cc2c(ccc3c(CCC4CCN(Cc5ccccc5)CC4)noc23)N1 | 2200 nM | 3.6 nM | – | – | – | –
O=C(O)/C=C\C(=O)O.O=C1Cc2cc3c(CCC4CCN(Cc5ccccc5)CC4)noc3cc2N1 [ICOPEZIL MALEATE] | 7200 nM | 0.33 nM | 105 | 26 mg/kg | 42 mg/kg | 0.4 mg/kg
